Laboratory results reported in patent US20240076272A1, “Activators of Heme Regulated Inhibitor Kinase (HRI)” (The Brigham and Women`s Hospital, Inc., priority 2019, published 2024).
“And” between values parts separate entries of the source, which are not always exact repeats. Identical values can stand only once.

Assays:
[1] = system: eIF2α phosphorylation (ATF-4 5′UTR luciferase reporter); assay: surrogate eIF2α phosphorylation dual-luciferase reporter (DLR) assay; format: cell-based; details: F/R luciferase ratio normalized to DMSO wells (F/R=1); for fold induction at 1.25 µM: read-out: Fold stimulation of ATF-4 Surrogate eIF2α @ 1.25 μM; for fold induction at 5 µM: read-out: Fold stimulation of ATF-4 Surrogate eIF2α @ 5 μM
Description: The dual luciferase expression vector and other plasmids used in the Examples provided herein have been previously reported (see e.g., Ziegeler et al, J. Biol. Chem. 285 (2010) 15408-15419). The dual luciferase surrogate eIF2α phosphorylation assay, has also been previously reported (see e.g., Chen et al, Nat. Chem. Biol. 7 (2011) 610-616). Briefly, a dual Renilla and Firefly luciferase mammalian reporter vector that transcribes both mRNAs from the same bi-directional enhancer/promoter complex was utilized for generation of surrogate eIF2α phosphorylation assay (see e.g., Ziegeler et al, J. Biol. Chem. 285 (2010) 15408-15419). Both mRNAs contained the same 90 nucleotide plasmid derived 5′UTR. In addition, 5′UTR of the Firefly luciferase open reading frame was fused in-frame to the 267 nucleotide ATF-4 5′UTR (see e.g., Chen et al, Nat. Chem. Biol. 7 (2011) 610-616).
Cells expressing firefly and renilla luciferases were assayed with a dual glow luciferase assay kit, per manufacturer's instruction (Promega Inc., Madison, WI). The data calculations were carried out as the ratio of firefly to renilla luciferase signal (see e.g., Ziegeler et al, J. Biol. Chem. 285 (2010) 15408-15419). Dose-response curves were obtained, and triplicate data points were fitted to the logistical sigmoidal model using nonlinear least-squares regression performed in GraphPad Prism 6.
All newly synthesized N,N′-disubstituted ureas were initially evaluated by testing in the surrogate eIF2α phosphorylation dual-luciferase reporter (DLR) assay (see e.g., Chen et al, Nat. Chem. Biol. 7 (2011) 610-616; and Ziegeler et al, J. Biol. Chem. 285 (2010) 15408-15419). Briefly, this assay takes advantage of the fact that activated HRI phosphorylates eIF2α which inhibits eIF2 guanine nucleotide exchange factor eIF2B, responsible for exchanging the GDP in the eIF2·GDP complex for GTP. The reduction in the recycling of eIF2·GDP into eIF2·GTP interferes with the formation of eIF2·GTP·Met-tRNAi ternary complex. […] These include mRNA coding for activating transcription factor 4 (ATF-4) (see e.g., Aktas et al, Oncotarget, 4 (2013) 1606-1617; Aktas et al, Oncotarget, 6 (2015) 6902-6914; and Aktas et al, Proc. Natl. Acad. Sci. U.S.A. 95 (1998) 8280-8285).
In the present assay, firefly (F) luciferase mRNA was fused to the 5′UTR of ATF-4 mRNA that had multiple uORFs, while renilla (R) luciferase mRNA was fused to a 5′UTR lacking any uORFs. Agents that reduce the amount of the eIF2·GTP·Met-tRNAi ternary complex, such as N,N′-disubstituted ureas that activate HRI, increase F luciferase expression while reducing the R luciferase expression, resulting in an increased F/R luciferase ratio. The ureas of the present application were tested at 10 μM, 5 μM, 2.5 μM, and 1.25 μM concentrations in 96-well assay plates (see e.g., Chen et al, Nat. Chem. Biol. 7 (2011) 610-616; and Bai et al, ChemBioChem, 14 (2013) 1255-1262). The activity scores as the F/R ratios were calculated for every compound-treated well and normalized to F/R ratio of vehicle-treated (DMSO) wells in the same plate, arbitrarily set at 1 (F/R=1). Data obtained in the surrogate dual-luciferase eIF2α phosphorylation (DLR) assay for the series of 1-phenyl-3/4-(4-trifluorometyl) phenoxy-cycloalkyl)ureas (4-CF3-ΦcAlkΦUs) and 1-phenyl-3-(5-(4-(trifluoromethyl) phenoxy)pyrimidin-2-yl)ureas (4-CF3-ΦOPyΦUs) described herein are shown in Tables 1-2.

[2] = system: human melanoma; details: xenograft mice model of human melanoma; cited from earlier work

melting point	SMILES	Fold stimulation of ATF-4 Surrogate eIF2α @ 1.25 μM [1]	Fold stimulation of ATF-4 Surrogate eIF2α @ 5 μM [1]	in vivo efficacy [2]	organ toxicity [2]	fold induction at 1.25 µM [1]	fold induction at 5 µM [1]
–	N#Cc1cc(NC(=O)N[C@H]2CC[C@H](Oc3ccc(C(F)(F)F)cc3)CC2)cc(C(F)(F)F)c1 [Compound 1-VI, 1-(3-cyano-5-trifluoromethyl) phenyl-3-(trans-4-(4-(trifluoromethyl)phenoxy)cyclohexyl)urea, reference compound]	5.7 fold and 5.7 ± 1.4 fold	13.8 fold and 13.8 ± 1.5 fold	in vivo efficacy	no apparent organ toxicity	–	–
–	N#Cc1ccc(NC(=O)N[C@H]2CC[C@H](Oc3ccc(C(F)(F)F)cc3)CC2)cc1F [Compound 5-VI, 1-(4-Cyano-3-fluorophenyl)-3-(trans-4-(4-(trifluoromethyl)phenoxy)cyclohexyl)urea]	5.5 ± 0.4 fold	–	–	–	5.5	10.4 ± 1
191.6 to 193 °C	N#Cc1cc(NC(=O)N[C@H]2C[C@H](Oc3ccc(C(F)(F)F)cc3)C2)cc(C(F)(F)F)c1 [Compound 1-IV, 1-(3-Cyano-5-(trifluoromethyl)phenyl)-3-(trans-3-(4-(trifluoromethyl)phenoxy)cyclobutyl)urea]	4.4 ± 1.1 fold	10 ± 1.8 fold	–	–	4.4	10
237.8 to 240.8 °C	N#Cc1cc(F)cc(NC(=O)N[C@H]2CC[C@H](Oc3ccc(C(F)(F)F)cc3)CC2)c1 [Compound 4-VI, 1-(3-Cyano-5-fluorophenyl)-3-(trans-4-(4-(trifluoromethyl)phenoxy)cyclohexyl)urea]	–	–	–	–	4.6 ± 0.7	9.3 ± 1.3
